Experiments:
Type in all cases: biochemical
ENPP1 [1] = target: T1, ENPP1 (Homo sapiens, UniProt P22413); test: ENPP1 enzyme assay with AMP-pNP substrate (hydrolysis of ATP analog); conditions: AMP-pNP substrate (ATP analog); Ki from IC50 by Cheng-Prusoff; read-out: ENPP1 Inhibition _AMP-pNP: Ki
T1 sequence (P22413 1-925): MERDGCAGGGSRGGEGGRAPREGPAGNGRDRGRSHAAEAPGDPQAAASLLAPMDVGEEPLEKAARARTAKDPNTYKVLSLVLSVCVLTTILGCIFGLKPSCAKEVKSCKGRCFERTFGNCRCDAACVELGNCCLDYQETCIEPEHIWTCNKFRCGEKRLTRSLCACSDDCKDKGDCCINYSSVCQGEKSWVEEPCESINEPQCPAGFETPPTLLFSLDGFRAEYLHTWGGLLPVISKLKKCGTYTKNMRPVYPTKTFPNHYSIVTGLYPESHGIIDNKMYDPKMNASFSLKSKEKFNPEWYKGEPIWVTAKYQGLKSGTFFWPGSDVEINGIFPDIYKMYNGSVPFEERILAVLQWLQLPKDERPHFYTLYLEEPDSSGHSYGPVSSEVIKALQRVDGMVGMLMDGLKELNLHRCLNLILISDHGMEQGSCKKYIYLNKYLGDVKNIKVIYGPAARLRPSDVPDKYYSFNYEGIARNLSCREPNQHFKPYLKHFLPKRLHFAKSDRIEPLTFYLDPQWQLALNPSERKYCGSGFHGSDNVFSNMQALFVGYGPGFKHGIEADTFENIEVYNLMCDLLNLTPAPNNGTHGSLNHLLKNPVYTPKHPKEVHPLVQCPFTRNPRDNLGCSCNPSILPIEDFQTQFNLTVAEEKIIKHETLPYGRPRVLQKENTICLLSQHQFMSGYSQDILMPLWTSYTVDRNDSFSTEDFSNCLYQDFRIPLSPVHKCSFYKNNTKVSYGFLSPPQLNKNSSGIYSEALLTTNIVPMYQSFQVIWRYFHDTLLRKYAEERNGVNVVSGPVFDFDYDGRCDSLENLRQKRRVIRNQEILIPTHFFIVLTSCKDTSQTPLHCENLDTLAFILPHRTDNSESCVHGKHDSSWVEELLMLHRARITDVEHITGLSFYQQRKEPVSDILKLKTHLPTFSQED
Summary of the method: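 Human recombinant ENPP1 (60 ng/well) with 300 µM AMP-pNP in 50 mM Tris-HCl pH 8.5, 250 mM NaCl, 0.5 mM CaCl2, 1 µM ZnCl2, 0.1% DMSO, 20 min at 37 °C.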

ENPP1 [2] = target: T1, ENPP1; test: Indirect quantitation of 2',3'-cGAMP hydrolysis (AMP-Glo Assay kit); conditions: cGAMP substrate; Ki from IC50 by Cheng-Prusoff; read-out: ENPP1 Inhibition -cGAMP: Ki
ENPP1 [3] = target: T1, ENPP1; test: Substrate selectivity ratio, inhibition of cGAMP hydrolysis versus ATP hydrolysis; conditions: ratio Ki AMP-pNP / Ki cGAMP
Description: The selectivity ratios for inhibition of cGAMP hydrolysis versus ATP hydrolysis were then calculated as follows: […]

SMILES	Ki (ENPP1 [1]) [nM]	Ki (ENPP1 [2]) [nM]	Substrate Selectivity: Ki_AMP-pNP/Ki_cGAMP (ENPP1 [3])
COc1ccc2c(N3CCc4cc(NS(N)(=O)=O)ccc43)c(C)cnc2c1 [Example 378, N-(1-(7-methoxy-3-methylquinolin-4-yl)indolin-5-yl)sulfamide]	100 to 1000	< 100	42
NS(=O)(=O)NCCC1CCN(c2ncnc3c2CCNC3)CC1 [Example 232, N-(2-(1-(5,6,7,8-tetrahydropyrido[3,4-d]pyrimidin-4-yl)piperidin-4-yl)ethyl)sulfamide]	> 1000	100 to 1000	> 7.1
COc1cc2ncc(C#N)c(-c3ccc4c(c3)CN(S(N)(=O)=O)CC4)c2cc1OC [Example 149, 7-(3-cyano-6,7-dimethoxyquinolin-4-yl)-3,4-dihydroisoquinoline-2(1H)-sulfonamide]	< 100	< 100	12.2
COc1ccc2c(N3CCC4(CC3)CCN(S(N)(=O)=O)C4)ncnc2c1 [Example 65, 8-(7-methoxyquinazolin-4-yl)-2,8-diazaspiro [4.5] decane-2-sulfonamide]	< 100	< 100	38.7
COc1cc2ncnc(NC3CCC(NS(N)(=O)=O)CC3)c2cc1OC (stereo not drawn) [Example 272, N-(4-((6,7-dimethoxyquinazolin-4-yl)amino)cyclohexyl)sulfamide]	> 1000	< 100	>35.2
COc1cc2nccc(N3CCCc4cc(NS(N)(=O)=O)ccc43)c2cc1OC [Example 291, N-(6′,7′-dimethoxy-3,4-dihydro-2H-[1,4′-biquinolin]-6-yl)sulfamide]	> 1000	100 to 1000	> 126
COc1ccc2c(-c3ccc(CNS(N)(=O)=O)s3)ccnc2c1 [Example 389, N-((5-(7-methoxyquinolin-4-yl)thiophen-2-yl)methyl)sulfamide]	< 100	< 100	34
COc1cc2ncnc(N3CCC(CCn4nnc(N)n4)CC3)c2cc1OC [Example 195, 2-(2-(1-(6,7-dimethoxyquinazolin-4-yl)piperidin-4-yl)ethyl)-2H-tetrazol-5-amine]	> 1000	100 to 1000	> 45.7
COc1cc2ncnc(N3CCC(CNS(N)(=O)=O)CC3)c2cc1OC [Example 339, N-((1-(6,7-dimethoxyquinazolin-4-yl)piperidin-4-yl)methyl)sulfamide]	100 to 1000	< 100	38.5
COc1cc2nccc(NC3CCC(NS(N)(=O)=O)CC3)c2cc1OC (stereo not drawn) [Example 307, N-(4-((6,7-dimethoxyquinolin-4-yl)amino)cyclohexyl)sulfamide]	> 1000	100 to 1000	>15.5
COc1cc2nccc(-c3ccc(CNS(N)(=O)=O)cc3)c2cc1F [Example 239, N-(4-(6-fluoro-7-methoxyquinolin-4-yl)benzyl)sulfamide]	100 to 1000	< 100	62
COc1cc2nccc(Oc3cc(F)c(NS(N)(=O)=O)cc3F)c2cc1OC [Example 258, N-(4-((6,7-dimethoxyquinolin-4-yl)oxy)-2,5-difluorophenyl)sulfamide]	> 1000	< 100	>48.1
COc1cc(F)c2c(N3CCc4cc(NS(N)(=O)=O)ccc43)ccnc2c1 [Example 412, N-(1-(5-fluoro-7-methoxyquinolin-4-yl)indolin-5-yl)sulfamide]	> 1000	100 to 1000	>271
COc1cc2nccc(Nc3ccc(NS(=O)(=O)c4ccccc4)cc3)c2cc1OC [Example 153, N-(4-((6,7-dimethoxyquinolin-4-yl)amino)phenyl)benzenesulfonamide]	> 1000	< 100	62.9
